Where a name gives a salt, the structure may show the parent alone.
System: HMOX1
Test: HMOX1 Protein Assay (immunostaining of HO-1 in NHLF cells, GE InCell 1000)
Type: cell-based
Conditions: Homo sapiens, fold change above DMSO treated cells, 5 μM compound, 16 h
Protocol: Cell Culture. Normal Human Fibroblast (NHLF), were obtained from Lonza. Cultures of cells were maintained in Fibroblast Growth Medium (FGM-2) medium supplemented with 2% fetal bovine serum (FBS), Fibroblast Growth Factor (hFGF-B) 0.5 mL, Insulin 0.5 mL, gentamicin/amphotericin-B 0.5 mL at 37° C. in a humidified atmosphere of 5% CO2. Cells were grown to 80% confluence before treating.
HMOX1 Protein Assay. NHLF cells were grown to 80% confluency and harvested by washing once with HEPES and then trypsinized. Equal numbers (2×10^3 cells per well) of NHLF cells were plated in 384 well optilux tissue culture (BD) plates. Cells were incubated overnight in FGM-2 medium prior to exposure to compound. Cells were treated with either vehicle (DMSO) or compound (dissolved in vehicle) for 16 h. Cells were washed 2× with 1×PBS and fixed with 4% Paraformaldyhyde for 15 min. The fixed cells were then permeabalized with 0.1% Triton X-100 and blocked with 5% BSA in 1×PBS 0.05% Tween-20 for 15 min. HO-1 antibody (abcam) was used for immunostaining at 1:300 dilution in 1% BSA in 1×PBS for 1 hour. Cells were washed 2× with 1×PBS and secondary antibody goat anti-mouse Alexa 488 1:400 dilution (Invitrogen); Hoechst 1:2000 (Invitrogen) in 1% BSA in 1×PBS for 1 hour. Plate was washed 5× with 1×PBS and read at Hoechst Ex.360 […]; Alexa 488 Ex.480 Em. 535 using GE InCell 1000. Results analyzed using GE InCell Analyzer software. Heme oxygenase data represents the fold change above DMSO treated cells.
In general, the fold induction data are reported for 5 μM concentration (i.e., μ-moles of compound to total volume, where the solvent is about 99.2% media and 0.8% DMSO). In some instances, the reported data are for 3 μM concentration, which are indicated by an asterisk (*).

Compound: Cn1c(Nc2nc3ccc(Cl)cc3s2)nc2cc(C(=O)O)ccc21 [Example 29, 2-(6-Chloro-benzothiazol-2-ylamino)-1-methyl-1H-benzoimidazole-5-carboxylic acid]
- fold induction at 5 µM: 13.9

Compound: Cn1c(Nc2nc3ccc(Cl)cc3s2)nc2cc(C(=O)NCCO)ccc21 [Example 30, 2-(6-Chloro-benzothiazol-2-ylamino)-1-methyl-1H-benzoimidazole-5-carboxylic acid (2-hydroxy-ethyl)-amide]
- fold induction at 5 µM: 21.4

Compound: COCCNC(=O)c1ccc2c(c1)nc(Nc1nc3ccc(Cl)cc3s1)n2C [Example 31, 2-(6-Chloro-benzothiazol-2-ylamino)-1-methyl-1H-benzoimidazole-5-carboxylic acid (2-methoxy-ethyl)-amide]
- fold induction at 5 µM: 23.6

Compound: CCNC(=O)c1ccc2c(c1)nc(Nc1nc3ccc(Cl)cc3s1)n2C [Example 32, 2-(6-Chloro-benzothiazol-2-ylamino)-1-methyl-1H-benzoimidazole-5-carboxylic acid ethylamide]
- fold induction at 5 µM: 12.6

Compound: COC(=O)c1ccc2c(c1)nc(Nc1nc3cc(F)c(F)cc3s1)n2C [Example 33, 2-(5,6-Difluoro-benzothiazol-2-ylamino)-1-methyl-1H-benzoimidazole-5-carboxylic acid methyl ester]
- fold induction at 5 µM: 11.7

Compound: Cn1c(Nc2nc3cc(F)c(F)cc3s2)nc2cc(C(=O)O)ccc21 [Example 34, 2-(5,6-Difluoro-benzothiazol-2-ylamino)-1-methyl-1H-benzoimidazole-5-carboxylic acid]
- fold induction at 5 µM: 15.4

Compound: CCNC(=O)c1ccc2c(c1)nc(Nc1nc3cc(F)c(F)cc3s1)n2C [Example 35, 2-(5,6-Difluoro-benzothiazol-2-ylamino)-1-methyl-1H-benzoimidazole-5-carboxylic acid ethylamide]
- fold induction at 5 µM: 12.4

Compound: Cn1c(Nc2nc3cc(F)c(F)cc3s2)nc2cc(C(=O)NCCO)ccc21 [Example 36, 2-(5,6-Difluoro-benzothiazol-2-ylamino)-1-methyl-1H-benzoimidazole-5-carboxylic acid (2-hydroxy-ethyl)-amide]
- fold induction at 5 µM: 13.8

Compound: COCCNC(=O)c1ccc2c(c1)nc(Nc1nc3cc(F)c(F)cc3s1)n2C [Example 37, 2-(5,6-Difluoro-benzothiazol-2-ylamino)-1-methyl-1H-benzoimidazole-5-carboxylic acid (2-methoxy-ethyl)-amide]
- fold induction at 5 µM: 16.4

Compound: CNC(=O)c1ccc2nc(Nc3nc4ccc(OC(F)(F)F)cc4s3)n(C)c2c1 [Example 38, 3-Methyl-2-(6-trifluoromethoxy-benzothiazol-2-ylamino)-3H-benzoimidazole-5-carboxylic acid methylamide]
- fold induction at 5 µM: 18

Compound: COCCNC(=O)c1cc2nc(Nc3nc4ccc(OC(F)(F)F)cc4s3)n(C)c2cc1F [Example 39, 6-Fluoro-1-methyl-2-(6-trifluoromethoxy-benzothiazol-2-ylamino)-1H-benzoimidazole-5-carboxylic acid (2-methoxy-ethyl)-amide]
- fold induction at 5 µM: 18.2

Compound: COC(=O)c1cc2nc(Nc3nc4ccc(OC(F)(F)F)cc4s3)n(C)c2cc1F [Example 40, 6-Fluoro-1-methyl-2-(6-trifluoromethoxy-benzothiazol-2-ylamino)-1H-benzoimidazole-5-carboxylic acid methyl ester]
- fold induction at 5 µM: 11.8

Compound: Cn1c(Nc2nc3ccc(OC(F)(F)F)cc3s2)nc2cc(C(=O)O)c(F)cc21 [Example 41, 6-Fluoro-1-methyl-2-(6-trifluoromethoxy-benzothiazol-2-ylamino)-1H-benzoimidazole-5-carboxylic acid]
- fold induction at 5 µM: 33.3

Compound: CCNC(=O)c1cc2nc(Nc3nc4ccc(OC(F)(F)F)cc4s3)n(C)c2cc1F [Example 42, 6-Fluoro-1-methyl-2-(6-trifluoromethoxy-benzothiazol-2-ylamino)-1H-benzoimidazole-5-carboxylic acid ethylamide]
- fold induction at 5 µM: 34.7

Compound: Cn1c(Nc2nc3ccc(OC(F)(F)F)cc3s2)nc2cc(C(=O)NCCN3CCOCC3)ccc21 [Example 43, 1-Methyl-2-(6-trifluoromethoxy-benzothiazol-2-ylamino)-1H-benzoimidazole-5-carboxylic acid (2-morpholin-4-yl-ethyl)-amide]
- fold induction at 5 µM: 29.6

Compound: Cn1c(Nc2nc3ccc(OC(F)(F)F)cc3s2)nc2cc(C(=O)NCCOC(F)(F)F)ccc21 [Example 44, 1-Methyl-2-(6-trifluoromethoxy-benzothiazol-2-ylamino)-1H-benzoimidazole-5-carboxylic acid (2-trifluoromethoxy-ethyl)-amide]
- fold induction at 5 µM: 12.1

Compound: Cn1c(Nc2nc3ccc(OC(F)(F)F)cc3s2)nc2cc(C(=O)NCC(C)(C)O)ccc21 [Example 45, 1-Methyl-2-(6-trifluoromethoxy-benzothiazol-2-ylamino)-1H-benzoimidazole-5-carboxylic acid (2-hydroxy-2-methyl-propyl)-amide]
- fold induction at 5 µM: 12.5

Compound: Cn1c(Nc2nc3ccc(OC(F)(F)F)cc3s2)nc2cc(C(=O)NCCOCCO)ccc21 [Example 46, 1-Methyl-2-(6-trifluoromethoxy-benzothiazol-2-ylamino)-1H-benzoimidazole-5-carboxylic acid [2-(2-hydroxy-ethoxy)-ethyl]-amide]
- fold induction at 5 µM: 17.9

Compound: Cn1c(Nc2nc3ccc(OC(F)(F)F)cc3s2)nc2cc(C(=O)NCCOCCF)ccc21 [Example 47, 1-Methyl-2-(6-trifluoromethoxy-benzothiazol-2-ylamino)-1H-benzoimidazole-5-carboxylic acid [2-(2-fluoro-ethoxy)-ethyl]-amide]
- fold induction at 5 µM: 11.3

Compound: Cn1c(Nc2nc3ccc(OC(F)(F)F)cc3s2)nc2cc(C(=O)NCc3ccco3)ccc21 [Example 48, 1-Methyl-2-(6-trifluoromethoxy-benzothiazol-2-ylamino)-1H-benzoimidazole-5-carboxylic acid (furan-2-ylmethyl)-amide]
- fold induction at 5 µM: 15.8

Compound: Cn1c(Nc2nc3ccc(OC(F)(F)F)cc3s2)nc2cc(C(=O)NCC3COCCO3)ccc21 (centres unmarked) [Example 49, 1-Methyl-2-(6-trifluoromethoxy-benzothiazol-2-ylamino)-1H-benzoimidazole-5-carboxylic acid ([1,4]dioxan-2-ylmethyl)-amide]
- fold induction at 5 µM: 23.1

Compound: C[C@H](O)CNC(=O)c1ccc2c(c1)nc(Nc1nc3ccc(OC(F)(F)F)cc3s1)n2C [Example 50, 1-Methyl-2-(6-trifluoromethoxy-benzothiazol-2-ylamino)-1H-benzoimidazole-5-carboxylic acid ((S)-2-hydroxy-propyl)-amide]
- fold induction at 5 µM: 11.1

Compound: C[C@@H](O)CNC(=O)c1ccc2c(c1)nc(Nc1nc3ccc(OC(F)(F)F)cc3s1)n2C [Example 51, 1-Methyl-2-(6-trifluoromethoxy-benzothiazol-2-ylamino)-1H-benzoimidazole-5-carboxylic acid ((R)-2-hydroxy-propyl)-amide]
- fold induction at 5 µM: 9.9

Compound: Cn1c(Nc2nc3ccc(OC(F)(F)F)cc3s2)nc2cc(C(=O)N[C@H]3CC[C@H](O)CC3)ccc21 [Example 52, 1-Methyl-2-(6-trifluoromethoxy-benzothiazol-2-ylamino)-1H-benzoimidazole-5-carboxylic acid (trans-4-hydroxy-cyclohexyl)-amide]
- fold induction at 5 µM: 10

Compound: Cn1c(Nc2nc3ccc(OC(F)(F)F)cc3s2)nc2cc(C(=O)NCCOCC3CCCO3)ccc21 (centres unmarked) [Example 53, 1-Methyl-2-(6-trifluoromethoxy-benzothiazol-2-ylamino)-1H-benzoimidazole-5-carboxylic acid [2-(tetrahydro-furan-2-ylmethoxy)-ethyl]-amide]
- fold induction at 5 µM: 20.1

Compound: CCOC(C)CNC(=O)c1ccc2c(c1)nc(Nc1nc3ccc(OC(F)(F)F)cc3s1)n2C (centres unmarked) [Example 54, 1-Methyl-2-(6-trifluoromethoxy-benzothiazol-2-ylamino)-1H-benzoimidazole-5-carboxylic acid (2-ethoxy-propyl)-amide]
- fold induction at 5 µM: 18.5

Compound: Cn1c(Nc2nc3ccc(OC(F)(F)F)cc3s2)nc2cc(C(=O)NCC3CN(C(=O)OC(C)(C)C)CCO3)ccc21 (centres unmarked) [Example 55, 2-({[1-Methyl-2-(6-trifluoromethoxy-benzothiazol-2-ylamino)-1H-benzoimidazole-5-carbonyl]-amino}methyl)-morpholine-4-carboxylic acid tert-butyl ester]
- fold induction at 5 µM: 4.5

Compound: Cn1c(Nc2nc3ccc(OC(F)(F)F)cc3s2)nc2cc(C(=O)NCC3CNCCO3)ccc21 (centres unmarked) [Example 56, 1-Methyl-2-(6-trifluoromethoxy-benzothiazol-2-ylamino)-1H-benzoimidazole-5-carboxylic acid (morpholin-2-ylmethyl)-amide hydrochloride]
- fold induction at 5 µM: 16.1

Compound: CCOCCNC(=O)c1cc2nc(Nc3nc4ccc(OC(F)(F)F)cc4s3)n(C)c2cc1F [Example 57, 6-Fluoro-1-methyl-2-(6-trifluoromethoxy-benzothiazol-2-ylamino)-1H-benzoimidazole-5-carboxylic acid (2-ethoxy-ethyl)-amide]
- fold induction at 5 µM: 32
